Data: patent US20100105081A1, “DETECTING FUNGI IN HUMAN SAMPLES” (MAYO MEDICAL VENTURES, priority 2004, published 2010)

Test system: Alternaria
Assay: Total Alternaria polypeptides in nasal secretions of CRS patients before and after treatment (competitive immunoassay)
Format: in vivo, human
Settings: nasal secretion supernatants, change from baseline after treatment, N=6, paired samples
Procedure: Nasal secretions were obtained under endoscopic guidance using a sterile sinus secretion collector (Xomed Surgical Produces, Jacksonville, Fla.) from CRS patients before and after treatment with either placebo or amphotericin B. Each secretion specimen was extracted by adding twice the volume of 0.9% NaCl, vortexing, and centrifugation. The supernatants were stored at −20° C. To monitor changes in fungal antigen burden with treatment, total Alternaria polypeptides in nasal secretions were immunochemically quantitated essentially as described for latex polypeptides. Briefly, samples and a standard extract from Alternaria alternata competed with solid-phase Alternaria alternata polypeptides for rabbit anti-Alternaria IgG antibodies (ALK-Abello, Round Rock, Tex.). Radiolabeled, affinity-purified, goat anti-rabbit IgG was used for detection. The results are expressed as mass polypeptide per mL nasal secretion supernatants. The detection limit of the assay was 12 ng/mL for total Alternaria polypeptides. Sufficient quantities of mucus were not available to perform all the assays for each patient. The analyses were performed based on the availability of paired samples.

Q: With `C[C@@H]1[C@H](O)[C@@H](C)/C=C/C=C/C=C/C=C/C=C/C=C/C=C/[C@H](O[C@@H]2O[C@H](C)[C@@H](O)[C@H](N)[C@@H]2O)C[C@@H]2O[C@](O)(C[C@@H](O)C[C@@H](O)[C@H](O)CC[C@@H](O)C[C@@H](O)CC(=O)O[C@H]1C)C[C@H](O)[C@H]2C(=O)O` [Amphotericin B, amphotericin B] as the compound, how does the “Alternaria μg/mL, median change after treatment” value read?
A: The value was -0.30 µg/mL.

Q: And the “Alternaria μg/mL, range for change after treatment” value?
A: The value was -4.64 to 3.21 µg/mL.
